Laboratory results reported in ChEMBL document CHEMBL5723035, “Affinity Biochemical Literature for EUbOPEN Chemogenomic Library” (2024).
Non-standard residues stand in square brackets, D forms with d. Residues, ends and D or L forms follow the SMILES beside them. *: point of attachment. Tyr(3-Cl) = N[C@@H](Cc1ccc(O)c(Cl)c1)C(=O)O; Benzoyl(3,5-Cl2) = O=C(c1cc(Cl)cc(Cl)c1)*; Lys(Et2) = CCN(CC)CCCC[C@H](N)C(=O)O; Gly(cPent) = N[C@H](C(=O)O)C1CCCC1; Cbz = O=C(OCc1ccccc1)*; NH(propargyl) = C#CCN*; CH2F = FC*

Tests used:
[1] = target: Ubiquitin carboxyl-terminal hydrolase 7 (Homo sapiens, UniProt Q93009); assay: Affinity Biochemical interaction: (inhibition of enzyme activity in cleaving fluorogenic ubiquitin-rhodamine substrate) EUB0002755a USP7; type: functional; set-up: mode of action Inhibitor, recommended concentration 1 uM
Chain of Ubiquitin carboxyl-terminal hydrolase 7 (Q93009 whole entry): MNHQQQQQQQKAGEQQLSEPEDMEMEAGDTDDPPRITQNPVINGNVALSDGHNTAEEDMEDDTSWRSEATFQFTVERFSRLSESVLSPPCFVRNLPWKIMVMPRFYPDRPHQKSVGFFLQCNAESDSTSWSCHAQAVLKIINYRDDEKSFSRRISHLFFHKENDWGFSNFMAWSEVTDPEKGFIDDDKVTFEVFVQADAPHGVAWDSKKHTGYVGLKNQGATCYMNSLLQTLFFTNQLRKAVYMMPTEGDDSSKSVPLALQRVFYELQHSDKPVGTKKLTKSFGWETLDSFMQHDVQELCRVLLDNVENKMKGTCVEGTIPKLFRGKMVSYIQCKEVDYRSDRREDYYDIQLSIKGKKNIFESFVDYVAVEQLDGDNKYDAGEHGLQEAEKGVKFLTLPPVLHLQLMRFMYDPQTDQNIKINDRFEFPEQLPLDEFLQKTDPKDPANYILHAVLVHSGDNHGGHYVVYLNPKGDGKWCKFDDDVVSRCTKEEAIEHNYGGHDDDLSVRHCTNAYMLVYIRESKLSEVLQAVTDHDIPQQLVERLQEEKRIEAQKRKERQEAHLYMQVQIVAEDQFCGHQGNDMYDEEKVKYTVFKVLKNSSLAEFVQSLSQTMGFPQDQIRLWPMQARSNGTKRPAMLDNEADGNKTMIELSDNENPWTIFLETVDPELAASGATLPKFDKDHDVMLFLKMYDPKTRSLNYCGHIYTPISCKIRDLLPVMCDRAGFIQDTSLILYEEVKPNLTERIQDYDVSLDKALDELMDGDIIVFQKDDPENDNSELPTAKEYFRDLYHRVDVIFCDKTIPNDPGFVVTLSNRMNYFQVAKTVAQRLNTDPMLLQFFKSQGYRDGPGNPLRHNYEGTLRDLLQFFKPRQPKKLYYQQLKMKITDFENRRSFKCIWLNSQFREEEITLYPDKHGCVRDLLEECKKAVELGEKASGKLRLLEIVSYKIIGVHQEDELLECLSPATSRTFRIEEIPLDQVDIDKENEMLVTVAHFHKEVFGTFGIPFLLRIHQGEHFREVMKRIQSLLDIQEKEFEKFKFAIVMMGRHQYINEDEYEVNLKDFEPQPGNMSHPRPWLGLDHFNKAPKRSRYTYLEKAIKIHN

Dipeptidyl peptidase 1 = Dipeptidyl peptidase 1 (Homo sapiens, UniProt P53634); assay: Affinity Biochemical interaction: (No data available) EUB0002789aCl CTSC; set-up: mode of action Inhibitor, recommended concentration 1 uM
Chain of Dipeptidyl peptidase 1 (P53634 25-134 limits assumed): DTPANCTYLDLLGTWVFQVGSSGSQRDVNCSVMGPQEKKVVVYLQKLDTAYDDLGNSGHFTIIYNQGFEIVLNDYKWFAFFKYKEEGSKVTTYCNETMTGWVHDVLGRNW
Chain of Dipeptidyl peptidase 1 (P53634 231-394 limits assumed): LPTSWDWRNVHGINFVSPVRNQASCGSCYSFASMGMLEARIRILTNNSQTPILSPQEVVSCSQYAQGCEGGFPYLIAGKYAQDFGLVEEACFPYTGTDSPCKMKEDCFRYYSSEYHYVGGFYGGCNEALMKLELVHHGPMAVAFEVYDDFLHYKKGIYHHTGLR
Chain of Dipeptidyl peptidase 1 (P53634 395-463 limits assumed): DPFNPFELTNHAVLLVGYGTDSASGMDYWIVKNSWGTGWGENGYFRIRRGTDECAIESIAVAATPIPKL

[2] = target: cGMP-specific 3',5'-cyclic phosphodiesterase (Homo sapiens, UniProt O76074); assay: Affinity Biochemical interaction: (inhibition of enzyme activity in cleaving radiolabelled substrate [3H]cGMP) EUB0002742aCl PDE5A; type: functional; set-up: mode of action Inhibitor, recommended concentration 1 uM
[3] = target: T1, Chromobox protein homolog 2 (Homo sapiens, UniProt Q14781); assay: Affinity Biochemical interaction: (Fluorescence polarisation (fluorescein conjugated)) EUB0002728a CBX2; type: functional; set-up: mode of action Inhibitor, recommended concentration 1 uM
T1 sequence (Q14781 whole entry): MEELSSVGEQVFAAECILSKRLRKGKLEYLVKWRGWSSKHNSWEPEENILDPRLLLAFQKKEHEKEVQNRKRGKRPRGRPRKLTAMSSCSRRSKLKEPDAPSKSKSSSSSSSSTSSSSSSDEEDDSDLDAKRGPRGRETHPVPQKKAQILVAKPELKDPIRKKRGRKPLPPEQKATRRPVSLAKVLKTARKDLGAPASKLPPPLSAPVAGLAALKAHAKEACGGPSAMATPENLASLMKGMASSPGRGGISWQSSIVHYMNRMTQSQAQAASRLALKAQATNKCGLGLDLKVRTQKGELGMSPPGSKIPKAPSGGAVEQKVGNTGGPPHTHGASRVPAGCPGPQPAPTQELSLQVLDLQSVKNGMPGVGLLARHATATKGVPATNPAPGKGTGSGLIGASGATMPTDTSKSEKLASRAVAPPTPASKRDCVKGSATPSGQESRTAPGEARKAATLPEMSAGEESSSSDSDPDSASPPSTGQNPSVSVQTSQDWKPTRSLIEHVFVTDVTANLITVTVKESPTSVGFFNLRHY

[4] = target: T1, Chromobox protein homolog 2; assay: Affinity Biochemical interaction: (thermal shift assay (non-derivatised)) EUB0002728a CBX2; set-up: mode of action Inhibitor, recommended concentration 1 uM
[5] = target: Ubiquitin carboxyl-terminal hydrolase 30 (Homo sapiens, UniProt Q70CQ3)
Chain of Ubiquitin carboxyl-terminal hydrolase 30 (Q70CQ3 whole entry): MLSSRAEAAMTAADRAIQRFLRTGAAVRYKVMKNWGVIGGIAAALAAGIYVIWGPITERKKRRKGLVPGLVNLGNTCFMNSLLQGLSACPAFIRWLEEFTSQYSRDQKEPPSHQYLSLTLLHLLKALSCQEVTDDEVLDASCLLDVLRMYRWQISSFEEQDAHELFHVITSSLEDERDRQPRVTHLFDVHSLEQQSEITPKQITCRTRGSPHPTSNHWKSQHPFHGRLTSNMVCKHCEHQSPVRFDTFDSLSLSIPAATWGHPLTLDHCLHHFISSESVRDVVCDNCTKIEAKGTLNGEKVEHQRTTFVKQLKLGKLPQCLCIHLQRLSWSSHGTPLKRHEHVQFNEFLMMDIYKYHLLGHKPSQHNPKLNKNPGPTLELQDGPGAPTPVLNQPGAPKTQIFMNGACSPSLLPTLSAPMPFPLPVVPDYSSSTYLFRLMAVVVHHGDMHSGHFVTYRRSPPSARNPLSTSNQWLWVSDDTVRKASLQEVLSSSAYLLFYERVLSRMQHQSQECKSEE

Menin = Menin (Homo sapiens, UniProt O00255); assay: Affinity Biochemical interaction: (Enzymatic assay) EUB0002767a MEN1; type: functional; set-up: mode of action Inhibitor, recommended concentration 1 uM
Caspase-2 = Caspase-2 (Homo sapiens, UniProt P42575); assay: Affinity Biochemical interaction: (enzymatic assay (cleavage of fluorogenic substrate)) EUB0002782a CASP2; type: functional; set-up: mode of action Inhibitor, recommended concentration 1 uM
Cathepsin S = Cathepsin S (Homo sapiens, UniProt P25774); assay: Affinity Biochemical interaction: (inhibition of enzyme activity in cleaving fluorogenic substrate) EUB0002791a CTSS; type: functional; set-up: mode of action Inhibitor, recommended concentration 1 uM
Chain of Cathepsin S (P25774 whole entry): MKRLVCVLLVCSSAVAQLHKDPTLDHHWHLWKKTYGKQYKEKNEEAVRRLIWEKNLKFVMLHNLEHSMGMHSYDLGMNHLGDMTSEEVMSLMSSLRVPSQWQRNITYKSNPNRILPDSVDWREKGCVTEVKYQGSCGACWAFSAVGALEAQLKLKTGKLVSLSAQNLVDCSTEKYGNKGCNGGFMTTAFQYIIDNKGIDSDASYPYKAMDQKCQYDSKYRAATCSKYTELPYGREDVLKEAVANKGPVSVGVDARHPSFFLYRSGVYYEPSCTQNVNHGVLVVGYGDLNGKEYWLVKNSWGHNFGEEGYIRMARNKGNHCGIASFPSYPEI

[6] = target: Poly [ADP-ribose] polymerase 1 (Homo sapiens, UniProt P09874); assay: Affinity Biochemical interaction: (inhibition of enzyme activity) EUB0002763a PARP1; type: functional; set-up: mode of action Inhibitor, recommended concentration 1 uM
[7] = target: Poly [ADP-ribose] polymerase 2 (Homo sapiens, UniProt Q9UGN5); assay: Affinity Biochemical interaction: (inhibition of enzyme activity) EUB0002763a PARP2; type: functional; set-up: mode of action Inhibitor, recommended concentration 1 uM
Chain of Poly [ADP-ribose] polymerase 2 (Q9UGN5 whole entry): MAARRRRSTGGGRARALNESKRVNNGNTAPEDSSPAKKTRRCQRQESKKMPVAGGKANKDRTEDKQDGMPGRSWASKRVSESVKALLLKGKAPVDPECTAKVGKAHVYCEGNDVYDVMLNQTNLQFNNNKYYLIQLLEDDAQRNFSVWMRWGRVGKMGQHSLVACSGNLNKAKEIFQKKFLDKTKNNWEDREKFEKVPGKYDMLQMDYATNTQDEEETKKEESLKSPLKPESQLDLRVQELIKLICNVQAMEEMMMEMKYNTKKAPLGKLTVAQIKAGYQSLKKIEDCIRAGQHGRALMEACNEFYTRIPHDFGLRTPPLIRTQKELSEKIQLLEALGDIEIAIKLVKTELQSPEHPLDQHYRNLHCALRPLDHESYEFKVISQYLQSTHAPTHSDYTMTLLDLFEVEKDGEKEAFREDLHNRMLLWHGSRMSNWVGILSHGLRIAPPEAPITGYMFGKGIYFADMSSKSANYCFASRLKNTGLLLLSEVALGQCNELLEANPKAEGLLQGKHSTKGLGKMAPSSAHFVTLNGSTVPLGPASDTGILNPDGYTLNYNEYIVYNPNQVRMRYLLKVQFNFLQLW

[8] = target: T2, Calpain-1 catalytic subunit (Homo sapiens, UniProt P07384); assay: Affinity Biochemical interaction: (inhibition of enzyme activity using a fluorogenic substrate) EUB0002786aAD CAPN1; type: functional; set-up: mode of action Inhibitor, recommended concentration 1 uM
T2 sequence (P07384 whole entry): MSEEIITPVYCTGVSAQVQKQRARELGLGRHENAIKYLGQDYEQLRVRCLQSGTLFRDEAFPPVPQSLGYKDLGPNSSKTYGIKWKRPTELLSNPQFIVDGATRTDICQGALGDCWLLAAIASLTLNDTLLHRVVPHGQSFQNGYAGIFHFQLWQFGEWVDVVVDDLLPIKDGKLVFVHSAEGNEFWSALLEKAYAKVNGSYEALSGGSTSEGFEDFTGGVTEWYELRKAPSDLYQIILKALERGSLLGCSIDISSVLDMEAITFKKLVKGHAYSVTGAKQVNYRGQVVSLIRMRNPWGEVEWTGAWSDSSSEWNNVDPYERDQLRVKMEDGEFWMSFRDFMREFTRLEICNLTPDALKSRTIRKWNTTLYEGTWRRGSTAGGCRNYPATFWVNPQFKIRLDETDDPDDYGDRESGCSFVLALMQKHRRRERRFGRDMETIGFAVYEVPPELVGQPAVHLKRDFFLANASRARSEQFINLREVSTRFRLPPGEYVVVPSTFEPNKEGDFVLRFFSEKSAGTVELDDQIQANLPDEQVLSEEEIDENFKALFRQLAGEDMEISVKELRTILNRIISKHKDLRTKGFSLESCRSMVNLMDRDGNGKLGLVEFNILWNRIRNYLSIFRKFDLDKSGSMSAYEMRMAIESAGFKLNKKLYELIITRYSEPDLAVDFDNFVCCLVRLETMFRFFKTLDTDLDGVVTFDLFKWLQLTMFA

[9] = target: T2, Calpain-1 catalytic subunit; assay: Affinity Biochemical interaction: (inhibition of casein degradation, monitored by measuring generation of trichloroacetic acid-soluble peptides) EUB0002786aAD CAPN1; type: functional; set-up: mode of action Inhibitor, recommended concentration 1 uM
[10] = target: Calpain-2 catalytic subunit (Homo sapiens, UniProt P17655); assay: Affinity Biochemical interaction: (inhibition of casein degradation, monitored by measuring generation of trichloroacetic acid-soluble peptides) EUB0002786aAD CAPN2; type: functional; set-up: mode of action Inhibitor, recommended concentration 1 uM
Chain of Calpain-2 catalytic subunit (P17655 whole entry): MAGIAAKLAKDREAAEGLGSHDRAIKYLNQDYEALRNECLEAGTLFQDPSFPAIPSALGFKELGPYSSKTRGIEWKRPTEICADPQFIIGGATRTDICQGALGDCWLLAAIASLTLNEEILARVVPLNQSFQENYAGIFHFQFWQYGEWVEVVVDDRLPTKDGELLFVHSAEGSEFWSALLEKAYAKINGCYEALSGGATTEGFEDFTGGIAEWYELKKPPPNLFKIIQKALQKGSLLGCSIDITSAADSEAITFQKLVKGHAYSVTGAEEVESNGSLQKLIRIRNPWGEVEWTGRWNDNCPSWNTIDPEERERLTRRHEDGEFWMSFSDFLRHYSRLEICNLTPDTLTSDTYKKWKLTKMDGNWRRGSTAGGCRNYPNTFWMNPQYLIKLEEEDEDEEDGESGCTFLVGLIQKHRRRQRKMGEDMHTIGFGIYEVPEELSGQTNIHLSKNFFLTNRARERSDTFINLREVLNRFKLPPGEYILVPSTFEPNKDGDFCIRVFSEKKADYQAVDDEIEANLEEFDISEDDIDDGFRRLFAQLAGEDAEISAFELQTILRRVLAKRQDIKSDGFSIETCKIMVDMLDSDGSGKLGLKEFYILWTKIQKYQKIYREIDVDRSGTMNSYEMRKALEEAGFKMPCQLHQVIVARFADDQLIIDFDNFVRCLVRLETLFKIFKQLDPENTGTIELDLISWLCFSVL

[11] = target: WD repeat-containing protein 5 (Homo sapiens, UniProt P61964); assay: Affinity Biochemical interaction: (Time-resolved fluorescence energy transfer (TR-FRET) assay to determine the competitive binding affinity (Ki) against the MLL1-derived FITC-peptide probe) EUB0002769a WDR5; type: functional; set-up: mode of action Inhibitor, recommended concentration 1 uM
[12] = target: Histone-lysine N-methyltransferase 2A (Homo sapiens, UniProt Q03164); assay: Affinity Biochemical interaction: (H3K4 HMT inhibition assay to measure the effect on MLL1-mediated HMT activity) EUB0002769a MLL; type: functional; set-up: mode of action Inhibitor, recommended concentration 1 uM
[13] = target: Ubiquitin carboxyl-terminal hydrolase 1 (Homo sapiens, UniProt O94782); assay: Affinity Biochemical interaction: (Ubiquitin-rhodamine 110 Assay for USP1 activity) EUB0002793a USP1; type: functional; set-up: mode of action Inhibitor, recommended concentration 1 uM

`Cc1cc(Cl)cc(-c2c3sc(CN4C(=O)C5C(C4=O)C5(C)C)cc3nn2C)c1OC1CCNCC1` (configuration not stated) gave an IC50 [1] of 13.4 nM.

`CC[C@@H](/C=C/C(=O)N1CCc2ccccc21)NC(=O)C1(N)CCOCC1` was tested, and the IC50 (Dipeptidyl peptidase 1) was under 0.43 nM.

In the case of `CCn1c(=S)[nH]c2cc3c(NCc4ccccc4N4CCC(CO)CC4)ncnc3cc21`, the IC50 [2] is reported as 0.074 nM.

Work on `C#CCNC(=O)[C@H](CO)NC(=O)[C@H](CCCCN(CC)CC)NC(=O)[C@@H](NC(=O)[C@@H](NC(=O)[C@H](Cc1ccc(O)c(Cl)c1)NC(=O)c1cc(Cl)cc(Cl)c1)C1CCCC1)[C@@H](C)CC` ({Benzoyl(3,5-Cl2)}-[Tyr(3-Cl)][Gly(cPent)]I[Lys(Et2)]S-{NH(propargyl)}) yielded a Kd [3] of 80 nM and a Kd [4] of 110 nM.

Compound `COc1ccc(-c2csc(N(C)C(=O)[C@@H]3CCCN3C#N)n2)nc1C#N` has an IC50 [5] of under 100 nM.

Compound `CC(C)N(C(=O)c1cc(F)ccc1Oc1cncnc1N1CC2(CCN(C[C@H]3CC[C@H](NS(C)(=O)=O)CC3)CC2)C1)C(C)C` has a Ki (Menin) of 0.104 nM.

Work on `COC(=O)CC(NC(=O)C(C)NC(=O)C(NC(=O)C(CC(=O)OC)NC(=O)C(NC(=O)OCc1ccccc1)C(C)C)C(C)C)C(=O)CF` (configuration not stated) (Cbz-VD(OMe)VAD(OMe)-CH2F; configuration not given here) yielded an IC50 (Caspase-2) of about 80 nM.

With `CC(F)(F)C(=O)N[C@@H](CC1(F)CCCC1)C(=O)NC1(C(=O)C(N)=O)CCC1` the Ki (Cathepsin S) was 2.1 nM.

`O=C(c1cc(Cc2n[nH]c(=O)c3ccccc23)ccc1F)N1CC(CNC2CC2)C1` was tested, and the IC50 [6] was 1.4 nM and the IC50 [7] was 1 nM.

`CC[C@H](C)[C@H](NC(=O)[C@H](Cc1ccc(O)cc1)NC(=O)[C@@H](NC(=O)[C@H](CO)NC(=O)[C@H](CO)NC(=O)[C@H](CCSC)NC(=O)[C@@H]1CCCN1C(=O)[C@H](CC(=O)O)NC(C)=O)[C@@H](C)O)C(=O)N[C@@H](CCC(=O)O)C(=O)N[C@@H](CCC(=O)O)C(=O)N[C@@H](CC(C)C)C(=O)NCC(=O)N[C@@H](CCCCN)C(=O)N[C@@H](CCCNC(=N)N)C(=O)N[C@@H](CCC(=O)O)C(=O)N[C@H](C(=O)N[C@H](C(=O)N[C@H](C(=O)N1CCC[C@H]1C(=O)N1CCC[C@H]1C(=O)N[C@@H](CCCCN)C(=O)N[C@@H](Cc1ccc(O)cc1)C(=O)N[C@@H](CCCNC(=N)N)C(=O)N[C@@H](CCC(=O)O)C(=O)N[C@@H](CC(C)C)C(=O)N[C@@H](CC(C)C)C(=O)N[C@@H](C)C(N)=O)[C@@H](C)CC)[C@@H](C)O)C(C)C` (Ac-DPMSSTYIEELGKREVTIPPKYRELLA-NH2) was tested, and the Ki [8] was 0.2 nM, the IC50 [9] was about 60 nM and the IC50 [10] was about 30 nM.

Compound `COc1cc(O)cc(CN2CCc3c(cc(Cn4ccn(C)c4=N)cc3-c3ccc(F)cc3C)C2=O)c1` has a Kd [11] of under 0.02 nM and an IC50 [12] of 2.2 nM.

In the case of `CC(C)c1c(F)cccc1-c1ncc2[nH]c(=O)n(Cc3ccc(-c4nc(C(F)(F)F)cn4C)cc3)c2n1`, the IC50 [13] is reported as under 50 nM.
